Source: PMC7759012 (Biochemistry, 2020)

Key:
Assay type in all cases: binding
[1] = target: BirA (E. coli biotin protein ligase; BirA wt) (Escherichia coli, UniProt P06709, K183A); assay: ITC, direct titration, single-site model
[2] = target: BirA (E. coli biotin protein ligase; BirA wt) (Escherichia coli, UniProt P06709, R118A); assay: ITC, direct titration, single-site model
[3] = target: BirA (E. coli biotin protein ligase; BirA wt) (Escherichia coli, UniProt P06709, E313A); assay: ITC, direct titration, single-site model
[4] = target: BirA (E. coli biotin protein ligase; BirA wt) (Escherichia coli, UniProt P06709); assay: ITC, TAPS, proton linkage; details: pH 6.0; 10 mM Bistris, citrate or MES with 200 mM KCl, 2.5 mM MgCl2

Structure (SMILES) | Kd [1] [nM] | Kd [2] [nM] | Kd [3] [nM] | ITC, TAPS, proton linkage (enthalpy only) [4]
Nc1ncnc2c1ncn2[C@@H]1O[C@H](COP(=O)(O)OC(=O)CCCC[C@@H]2SC[C@@H]3NC(=O)N[C@@H]32)[C@@H](O)[C@H]1O [bio-5'-AMP] | 22 | 1.3 | 10 | –
Nc1ncnc2c1ncn2[C@@H]1O[C@H](COP(=O)(O)OCCCCC[C@@H]2SC[C@@H]3NC(=O)N[C@@H]32)[C@@H](O)[C@H]1O [btnOH-AMP] | – | – | – | btnOH-AMP binding to BirA^wt is linked to proton release
